Where “and” joins values, the source holds several entries; their conditions need not be identical. Equal entries are not always repeated.
Legend:
[1] = Cycle 1 plasma PK (gamma counting of plasma, bi-exponential fit); type: in vivo, human
Protocol: Additionally, for PK assessment, whole blood samples were collected at six timepoints (Pre-Infusion, 1 h, 4 h, 24 h, 48 h, and 168 h) and processed to extract plasma. All plasma samples were gamma counted locally for analysis of pharmacokinetics.
PK plasma samples were collected at pre-Infusion, 1 h, 4 h, 24 h, 48 h, and 168 h, and counted for radioactivity. Blood samples were first centrifuged to extract plasma, and then the radioactivity in plasma was counted in a gamma counter.
Whole blood samples were collected as detailed in the protocol Schedule of Events i.e. pre-injection, and then at 1 h, 4 h, 24 h, 48 h, and 168 h post-injection. The samples were first centrifuged to separate plasma, and the radioactivity in the plasma was then measured using a gamma counter. Plasma concentrations were subsequently fitted with a bi-exponential function to derive outcome parameters such as the half-life and clearance rate of the radiopharmaceutical in the plasma.
For each sample, collect sufficient sample volume for triplicate aliquots to meet the measurement requirements of your institution's gamma counter and perform measurements according to standard procedure. Blood will be processed and plasma will be measured on the gamma counter, as described in the following subsections.
All blood samples drawn must be aliquoted 3 times, labeled appropriately, and stored per standard procedure for later measurement of plasma in the qualified gamma counter. All samples will be counted as a group for each patient for each Cycle, no later than 24 hours following the final sample collection.
Collect 5 ml of blood in a BD PPT system (Plasma Protein Preservation Tube-draw volume of 5 mL).
Centrifuge at 18-25° C. at 1100 g for 10 min. The resulting supernatant is designated plasma.
Gamma Counter Measurements: All patient samples must be counted for 60 seconds, with a counting energy window of 102-229 keV.

[2] = Cycle 1 biodistribution: SPECT/CT time-activity curves (fraction of injected activity); type: in vivo, human; conditions: excluding patient 42-030
Protocol: This Example presents the biodistribution, dosimetry, and pharmacokinetics (PK) results of a PK/Dosimetry sub-study performed as part of a Phase III trial. Twenty-seven (27) patients were administered a target activity of 7.4±10% GBq of ^177Lu-PSMA-I&T and underwent single photon emission computed tomography (SPECT)/computed tomography (CT) imaging at four timepoints (4 h, 24 h, 48 h, and 168 h). Image data was analysed to compute time-activity curves (TACs) and subsequently time-integrated activity coefficients (TIACs) in each organ of interest and in organs showing appreciable and meaningful ^177Lu-PSMA-I&T activity. Organ Level Internal Dose Assessment (OLINDA 2.2.3) was used to compute organ and whole body absorbed radiation doses for each patient.
All participating sites underwent a rigorous site setup process during which all dose calibrators, scanners, and gamma counters used in the sub-study were calibrated. Sites were allowed to enroll patients in the sub-study only after the completion and approval of all site setup processes by Invicro. Patients underwent SPECT/CT imaging, with anatomical coverage typically extending from the salivary glands to the pelvis, following the administration of a targeted 7.4±10% GBq of ^177Lu-PSMA-I&T at cycle 1. SPECT/CT imaging was performed at four timepoints: 4 h, 24 h, 48 h, and 168 h post-injection. Additionally, a subset of patients imaged at Cycle 1 (16 out of 27), were also imaged at Cycle 3 (Table 2).
Volume of interest (VOI) (kidneys, bladder, liver, lumbar vertebrae L2-L4, lacrimal glands, salivary glands [parotid and submandibular glands], and whole body) were delineated on each dataset by a trained image analyst. […]
Clearance of the radiopharmaceutical was derived from a data-appropriate fit of each organ's TAC. […] TIACs were calculated through analytical integration of the curve fit extrapolated to infinity. […] The remainder activity was determined by subtracting the cumulative organ TIACs from the whole body TIAC. […]

[3] = Cycle 1, plasma, patient 42-030 excluded

## O=C(O)CC[C@H](NC(=O)N[C@@H](CCCCNC(=O)CCCCCCC(=O)NCCCC[C@@H](NC(=O)[C@@H](Cc1ccccc1)NC(=O)[C@@H](Cc1ccc(O)c(I)c1)NC(=O)CC[C@H](C(=O)O)N1CCN(CC(=O)O)CCN(CC(=O)O)CCN(CC(=O)O)CC1)C(=O)O)C(=O)O)C(=O)O [^177Lu-PSMA-I&T, (3S,7 S,26R,29R,32R,37R)-29-benzyl-32-(4-hydroxy-3-iodobenzyl)-5,13,20,28,31,34-hexaoxo-37-(4,7,10-tris(carboxymethyl)-1,4,7,10-tetraazacyclododecan-1-yl)-4,6,12,21,27,30,33-heptaazaheptatriacontane-1,3,7,26,37-pentacarboxylic acid; lutetium-177 (III), metal not drawn]
[1]; Cycle 1, plasma, individual patients, time of first sample
  Time of Peak Concentration: 53.00 min and 60.00 min (6×) and 51.00 min (2×) and 58.00 min and 61.00 min (2×) and 50.00 min and 63.00 min and 57.00 min and 55.00 min and 52.00 min (2×) and 68.00 min and 71.00 min and 65.00 min and 33.00 min and 40.00 min and 69.00 min and 56.00 min and 127.00 min and 47.00 min
[1]; Cycle 1, plasma, individual patients, value at first sample
  Peak Concentration Value: 0.04 fIA/L (10×) and 0.03 fIA/L (4×) and 0.05 fIA/L (7×) and 0.01 fIA/L and 0.06 fIA/L (2×) and 0.02 fIA/L and 0.07 fIA/L (2×)
[1]; [3]
  AUC Total, Mean: 22.77 fIA/L × min
  AUC Total, max: 37.86 fIA/L × min
  AUC Total, median: 20.84 fIA/L × min
  AUC Total, min: 3.07 fIA/L × min
  Peak Concentration Value, Mean: 0.04 fIA/L
  Peak Concentration Value, max: 0.07 fIA/L
  Peak Concentration Value, median: 0.04 fIA/L
  Peak Concentration Value, min: 0.01 fIA/L
  Time of Peak Concentration: 33.00 min
  Time of Peak Concentration, Mean: 59.19 min
  Time of Peak Concentration, max: 127.00 min
  Time of Peak Concentration, median: 59.00 min
  Vc, Mean: 20.29 L
  Vc, max: 111.78 L
  Vc, median: 16.33 L
  Vc, min: 9.92 L
[1]; cycle 1, first post-administration sample acquired with a delay
  time to peak, patient 80-007: 127 min
[2]
  whole body activity retention at 4 h, max: 78%
  whole body activity retention at 4 h, min: 24%
  whole body mean activity retention at 4 h: 44%±13%

From US20250262336A1, “[177LU] LUTETIUM-PSMA I&T COMPOSITION AND DOSIMETRY, KIT, METHOD OF MAKING, AND METHOD OF USING THEREOF” (Curium US LLC, priority 2023, published 2025)
